We go through five compounds from patent publication US4308278A, “Anorexigenic 4-[(3,4-dialkoxyphenyl)alkyl]-2-imidazolidinone derivatives” (Gyogyszerkutato Intezet, priority 1978, dated 1981).

Counter-ions that a name gives are not always drawn.

The subject of one data set is mice. The settings on record: oral, literature value (footnotes 1, 2, 5); cited from earlier work.
The test system of a further data set is rats. The settings on record: oral, literature value (footnotes 2, 3); cited from earlier work.
In data set [1] the test system is CFY rats. In words: anorexigenic effect in starved CFY rats (feed consumption / body weight). It is filed as in vivo, rat. The settings on record: for ED50: Rattus norvegicus, rats, starved 24 h, dose halving food consumption or body weight gain vs control, read-out: ED50 orally in rats; for ED50 / Therapeutic ratio: oral; for Therapeutic ratio: LD50 and ED50 in rats. How it is done:
For studying the anorexigenic effect the following method was used. CFY rats were starved for 24 hours, then the substance was orally administered, and half an hour later the animals were allowed to feed ad libitum during 5 hours when the feed consumption was measured. The change in the body weight of animals and the amount of the consumed solid, granulated food or sugar milk or peeled potato, respectively, were determined.
*ED50 is the oral dose after administration of which, following a
period of 24 hours of starvation, the rats consume the half amount of foo
as compared to control, or the oral dose after the administration of whic
the body weight gain is a half of that of control.

A short description of the next data set: acute toxicity in mice. The following applies: mouse, in vivo.
Data set [2] relates to CFY rats. The settings on record: oral, literature value (footnotes 4, 5); cited from earlier work.
Data set [3] in a line: acute oral toxicity in rats. The following applies: rat, in vivo.

Regarding `CCNC(C)Cc1cccc(C(F)(F)F)c1` (racemic) [Fenfluramine, DL-N-ethyl-α-methyl-3-trifluoromethylbenzeneethanamine hydrochloride], the “Acute LD50 orally in mice” value in the data set with mice was 170 to 290 mg/kg. Further, in the data set on rats, the “Acute LD50 orally in rats” value is recorded as 138 mg/kg. Besides, in the data set on CFY rats [1], the ED50 was determined as 7.5 mg/kg and the Therapeutic ratio was 20.3. For the same compound, in the data set “acute toxicity in mice” (ip), the 50% lethal dose (LD50) was 100 mg/kg.

With `CC(C)(N)Cc1ccc(Cl)cc1.Cl` [Chlorphentermine, α,α-dimethyl-4-chlorobenzeneethanamine hydrochloride], the “Acute LD50 orally in mice” value with mice is 250 mg/kg. Also, the Therapeutic ratio with CFY rats [1] was found to be 30.0. The “ED50 orally in rats” value with CFY rats [2] is reported as 12.5 mg/kg. Besides, the 50% lethal dose (LD50) in data set [3] worked out at 375 mg/kg.

For `CC(N)Cc1ccccc1` [D-Amphetamine, D-benzeneethanamine sulphate], the “Acute LD50 orally in mice” value with mice is on record as 60 mg/kg. The “Acute LD50 orally in rats” value in the data set on rats is 38 mg/kg. Further, in the data set with CFY rats [1], the ED50 was 5 mg/kg and the Therapeutic ratio turned out to be 7.6.

In the case of `COc1ccc(CC2CNC(=O)N2)cc1OC1CCCC1` (stereo not drawn) [Ia, 4-[(3-cyclopentyloxy-4-methoxyphenyl)methyl]-2-imidazolidinone], the ED50 in the data set with CFY rats [1] was found to be 10.5 mg/kg. Further, the “therapeutic ratio (comparison in words)” value in the data set on CFY rats [1] (compared with anorexigenic drugs introduced so far) is on record as “more favourable than that of the best anorexigenic drugs introduced so far”. Further, the anorexigenic effect entry with CFY rats [1] (in words) is “much more intense than that of the anorexigenic drugs introduced so far”. In the data set with CFY rats [1], the Therapeutic ratio was 72.5. In addition, the median lethal dose (LD50) turned out to be 760 mg/kg in data set [3], 680 mg/kg in the data set “acute toxicity in mice” (ip) and 2050 mg/kg in the data set “acute toxicity in mice” (po).

As to `OC1(c2ccc(Cl)cc2)c2ccccc2C2=NCCN21` (stereo not drawn) [Mazindol, 5-(4-chlorophenyl)-2,5-dihydro-3H-imidazo[2,1-a]isoindol-5-ol], the Therapeutic ratio in the data set on CFY rats [1] stood at 9.7. Besides, in the data set with CFY rats [2], the “ED50 orally in rats” value was 25.8 mg/kg. Further, the median lethal dose (LD50) in data set [3] worked out at 250 mg/kg; in “acute toxicity in mice” (po), 106 mg/kg.

As a reminder, the LD50 is the dose at which mortality reaches 50%. A low value points to a more toxic substance.
